Where two headings read alike, the source gives them in different places.
Assays:
[1] = target: T1, GSK3a (GST-full length GSK3a) (Homo sapiens, UniProt P49840); assay: GSK3a TR-FRET kinase inhibition assay; assay type: biochemical
T1 construct: GST-full length GSK3a [SignalChem G08-10G]; purchased SignalChem G08-10G
Method in brief: (§1)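 GST-tagged full-length human kinase (1 nM), pre-incubated 30 min with compound, then reacted 100 min at ambient temperature at pH 7.5 with 200 nM biotinylated phospho-S645 glycogen synthase 631–650 peptide and ATP at 2 μM–1 mM. After EDTA quench, Tb-pSer641 antibody/streptavidin-d2 TR-FRET 665/615 ratio fitted for IC50.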

[2] = target: T2, GSK3b (GST-full length GSK3b) (Homo sapiens, UniProt P49841); assay: GSK3b TR-FRET kinase inhibition assay; assay type: biochemical
T2 construct: GST-full length GSK3b: [SignalChem G08-9G]; purchased SignalChem G08-9G
T2 sequence (P49841 whole entry): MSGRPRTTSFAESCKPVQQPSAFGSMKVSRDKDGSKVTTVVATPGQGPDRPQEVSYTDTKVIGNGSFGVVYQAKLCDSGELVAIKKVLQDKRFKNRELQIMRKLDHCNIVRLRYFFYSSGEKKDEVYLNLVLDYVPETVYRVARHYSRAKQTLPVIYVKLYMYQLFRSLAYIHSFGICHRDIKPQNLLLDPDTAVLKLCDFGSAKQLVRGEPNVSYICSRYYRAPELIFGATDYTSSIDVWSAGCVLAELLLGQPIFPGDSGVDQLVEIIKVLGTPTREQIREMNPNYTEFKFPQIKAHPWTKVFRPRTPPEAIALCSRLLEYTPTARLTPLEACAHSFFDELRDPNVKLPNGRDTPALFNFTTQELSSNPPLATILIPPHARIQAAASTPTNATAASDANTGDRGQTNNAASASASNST
Method in brief: as §1

[3] = 1 mM ATP, Table 5, read-out: GSK3α TR-FRET 1 mM ATP Average IC50
[4] = 1 mM ATP, Table 5, read-out: GSK3β TR-FRET 1 mM ATP Average IC50
[5] = 4 μM ATP, read-out: GSK3α TR-FRET 4 μM ATP GMean IC50
[6] = 2 μM ATP, read-out: GSK3β TR-FRET 2 μM ATP GMean IC50
[7] = 1 mM ATP, Table 3, read-out: GSK3a TR-FRET 1 mM ATP Average IC50
[8] = 1 mM ATP, Table 3, read-out: GSK3b TR-FRET 1 mM ATP Average IC50
[9] = 100 μM ATP, read-out: GSK3a 100 μM ATP Average IC50
[10] = 100 μM ATP, read-out: GSK3b 100 μM ATP Average IC50

T1 sequence (P49840 whole entry): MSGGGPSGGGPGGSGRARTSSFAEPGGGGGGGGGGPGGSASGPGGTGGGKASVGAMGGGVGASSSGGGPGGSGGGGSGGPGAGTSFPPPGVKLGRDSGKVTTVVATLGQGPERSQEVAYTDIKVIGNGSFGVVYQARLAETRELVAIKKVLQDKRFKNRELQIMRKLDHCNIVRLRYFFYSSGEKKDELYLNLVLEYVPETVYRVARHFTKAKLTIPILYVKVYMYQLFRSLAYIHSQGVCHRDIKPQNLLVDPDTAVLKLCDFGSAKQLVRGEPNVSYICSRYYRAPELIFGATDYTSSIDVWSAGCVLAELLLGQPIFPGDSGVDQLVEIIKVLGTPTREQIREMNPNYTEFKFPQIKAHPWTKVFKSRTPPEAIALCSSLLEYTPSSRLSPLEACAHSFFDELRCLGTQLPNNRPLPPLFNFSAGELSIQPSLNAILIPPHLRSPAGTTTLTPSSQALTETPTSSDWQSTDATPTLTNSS

## CC1(C)CC(=O)C2=C(Nc3ncc(F)c(C#N)c3[C@]2(C)c2ccccc2)[C@H]1F (single isomer, unassigned) [Compound 617A]
[1]; [3]
  IC50: 5 to 20 µM
[2]; [4]
  IC50: 5 to 20 µM

## CCC1(c2cccc(-c3ccccn3)c2)C2=C(CC(C)(C)CC2=O)Nc2ncccc21 (single isomer, unassigned) [Compound 1016B]
[1]; [5]
  IC50: 1 to 5 µM
[2]; [6]
  IC50: > 5 µM

## CC1(C)CC(=O)C2=C(C1)Nc1ncc(C(F)(F)F)cc1C2(C)c1cccc(C(F)F)c1 (single isomer, unassigned) [646A]
[1]; [3]
  IC50: 5 to 20 µM
[2]; [4]
  IC50: 5 to 20 µM

## CC(C)n1cncc1-c1cccc(C2(C)C3=C(CC(C)(C)CC3=O)Nc3ncc(C(F)(F)F)cc32)c1 (single isomer, unassigned) [Compound 171A]
[1]; [7]
  IC50: 1 to 5 µM
[2]; [8]
  IC50: 1 to 5 µM

## CC1(C)CC2=C(C(=O)[C@H]1F)[C@](C)(c1ccccc1)c1c(ncc(F)c1C#N)N2 (single isomer, unassigned) [Compound 616D]
[1]; [3]
  IC50: 5 to 20 µM
[2]; [4]
  IC50: 5 to 20 µM

## CC1(C)CC(=O)C2=C(C1)Nc1ncc(CF)c(C#N)c1C2(C)c1ccccc1 (single isomer, unassigned) [614A]
[1]; [3]
  IC50: 5 to 20 µM
[2]; [4]
  IC50: 5 to 20 µM

## C=Cc1c(C(F)(F)F)cnc2c1C(C)(c1ccccc1)C1=C(CC(C)(C)CC1=O)N2 (single isomer, unassigned) [636B]
[1]; [3]
  IC50: 5 to 20 µM
[2]; [4]
  IC50: 1 to 5 µM

## CC1(C)CC(=O)C2=C(C1)Nc1ncc(F)c(C3CC3)c1C2(C)c1cccc(S(C)(=O)=O)c1 (single isomer, unassigned) [Compound 153A]
[1]; [7]
  IC50: ≤ 0.1 µM
[2]; [8]
  IC50: ≤ 0.1 µM

## CC1(C)CC(=O)C2=C(C1)Nc1nccc(CC3CC3)c1C2(C)c1ccccc1 (single isomer, unassigned) [Compound 123B]
[1]; [7]
  IC50: 1 to 5 µM
[2]; [8]
  IC50: 1 to 5 µM

## CC1(C)CC(=O)C2=C(C1)Nc1ncc(C(F)(F)F)c(F)c1C2(C)c1ccccc1 (single isomer, unassigned) [Compound 136B]
[1]; [7]
  IC50: 5 to 20 µM
[2]; [8]
  IC50: 5 to 20 µM

## CC1(C)CC(=O)C2=C(C1)Nc1ncc(C(F)(F)F)cc1C2(C)c1ccccc1 (single isomer, unassigned) [Compound 128A]
[1]; [7]
  IC50: 5 to 20 µM
[2]; [8]
  IC50: 1 to 5 µM

## CC1(C)CC(=O)C2=C(C1)Nc1nccc(F)c1C2(C)c1ccccc1 (single isomer, unassigned) [Compound 105B]
[1]; [7]
  IC50: 1 to 5 µM
[2]; [8]
  IC50: 1 to 5 µM

## CC1(C)CC(=O)C2=C(C1)Nc1ncc(C(C)(F)F)c(C#N)c1C2(C)c1ccccc1 (single isomer, unassigned) [631B]
[1]; [3]
  IC50: 5 to 20 µM
[2]; [4]
  IC50: 5 to 20 µM

## CC1(C)CC(=O)C2=C(C1)Nc1ncc(Br)c(F)c1C2(C)c1ccccc1 (single isomer, unassigned) [Compound 140A]
[1]; [7]
  IC50: 1 to 5 µM
[2]; [8]
  IC50: 0.1 to 1 µM

## CC1(C)CC(=O)C2=C(C1)Nc1nccc(C(F)(F)F)c1C2(C)c1ccccc1 (single isomer, unassigned) [Compound 127B]
[1]; [7]
  IC50: 5 to 20 µM
[2]; [8]
  IC50: 5 to 20 µM

## COc1cnc2c(c1C1CC1)C(C)(c1ccccc1)C1=C(CC(C)(C)CC1=O)N2 (single isomer, unassigned) [626A]
[1]; [3]
  IC50: 5 to 20 µM
[2]; [4]
  IC50: 5 to 20 µM

## CC1(C)CC(=O)C2=C(C1)Nc1ncc(F)c(F)c1C2(C)c1ccccc1 (single isomer, unassigned) [Compound 116B]
[1]; [7]
  IC50: 0.1 to 1 µM
[2]; [8]
  IC50: 0.1 to 1 µM

## CCC1(c2cccc(-c3cn(C)nc3C)c2)C2=C(CC(C)(C)CC2=O)Nc2ncccc21 (single isomer, unassigned) [Compound 1023B]
[1]; [5]
  IC50: 0.1 to 1 µM
[2]; [6]
  IC50: 1 to 5 µM

## CCC1(c2cccc(-c3cnnc(C)c3)c2)C2=C(CC(C)(C)CC2=O)Nc2ncccc21 (single isomer, unassigned) [Compound 1022A]
[1]; [5]
  IC50: 0.1 to 1 µM
[2]; [6]
  IC50: 0.1 to 1 µM

## CC1(C)CC(=O)C2=C(Nc3ncc(C(F)F)c(C#N)c3[C@]2(C)c2ccccc2)[C@@H]1F (single isomer, unassigned) [Compound 633C]
[1]; [3]
  IC50: 5 to 20 µM
[2]; [4]
  IC50: 5 to 20 µM

## CC(C)Oc1cccc(C2(C)C3=C(CC(C)(C)CC3=O)Nc3ncc(C(F)F)c(C#N)c32)c1 (single isomer, unassigned) [650B]
[1]; [3]
  IC50: 0.1 to 1 µM
[2]; [4]
  IC50: 0.1 to 1 µM

## CCC1(c2cccc(-c3ccncc3OC)c2)C2=C(CC(C)(C)CC2=O)Nc2ncccc21 (single isomer, unassigned) [Compound 1028B]
[1]; [5]
  IC50: ≤ 0.1 µM
[2]; [6]
  IC50: ≤ 0.1 µM

## CN1C(=O)C2=C(CC1(C)C)Nc1ncc(F)c(C#N)c1C2(C)c1ccccc1 (single isomer, unassigned) [615B]
[1]; [3]
  IC50: ≤ 0.1 µM
[2]; [4]
  IC50: ≤ 0.1 µM

## Cc1cnc2c(c1C)C(C)(c1ccccc1)C1=C(CC(C)(C)CC1=O)N2 (single isomer, unassigned) [601A]
[1]; [3]
  IC50: 1 to 5 µM
[2]; [4]
  IC50: 1 to 5 µM

## CC1(C)CC(=O)C2=C(C1)Nc1ncccc1C2(C)c1cccc(-c2ccncc2N2CCOCC2)c1 (single isomer, unassigned) [Compound 164A]
[1]; [7]
  IC50: 1 to 5 µM
[2]; [8]
  IC50: 1 to 5 µM

## CC1(C)CC(=O)C2=C(C1)Nc1ncc(F)c(C#N)c1C2(C)c1cccc(C(F)F)c1 (single isomer, unassigned) [634B]
[1]; [3]
  IC50: ≤ 0.1 µM
[2]; [4]
  IC50: ≤ 0.1 µM

## CC1(C)CC(=O)C2=C(C1)Nc1ncc(F)cc1C2(C)c1cccc(C(F)F)c1 (single isomer, unassigned) [623B]
[1]; [3]
  IC50: 0.1 to 1 µM
[2]; [4]
  IC50: 0.1 to 1 µM

## CC1(C)CC2=C(C(=O)N1)C(C)(c1cccc(S(C)(=O)=O)c1)c1cc(C3CC3)cnc1N2 (single isomer, unassigned) [647B]
[1]; [3]
  IC50: 5 to 20 µM
[2]; [4]
  IC50: 5 to 20 µM

## CCC1(c2cccc(-c3ccnc(C)c3C)c2)C2=C(CC(C)(C)CC2=O)Nc2ncc(F)cc21 (single isomer, unassigned) [Compound 1035A]
[1]; [5]
  IC50: 1 to 5 µM
[2]; [6]
  IC50: 1 to 5 µM

## COc1cncc(CC(C)(C)C)c1-c1cccc(C2(C)C3=C(CC(C)(C)CC3=O)Nc3ncccc32)c1 (single isomer, unassigned) [Compound 172A]
[1]; [7]
  IC50: 0.1 to 1 µM
[2]; [8]
  IC50: 0.1 to 1 µM

## CN(C)c1cnc2c(c1C#N)C(C)(c1ccccc1)C1=C(CC(C)(C)CC1=O)N2 (single isomer, unassigned) [624B]
[1]; [3]
  IC50: > 20 µM
[2]; [4]
  IC50: 5 to 20 µM

## CN1C(=O)C2=C(CC1(C)C)Nc1ncc(F)c(C#N)c1C2(C)c1ccccc1 (single isomer, unassigned) [615A]
[1]; [3]
  IC50: 1 to 5 µM
[2]; [4]
  IC50: 1 to 5 µM

## CCc1ccnc2c1C(C)(c1ccccc1)C1=C(CC(C)(C)CC1=O)N2 (single isomer, unassigned) [Compound 112A]
[1]; [9]
  IC50: ≤ 0.1 µM
[1]; [7]
  IC50: 1 to 5 µM
[2]; [10]
  IC50: ≤ 0.1 µM
[2]; [8]
  IC50: 1 to 5 µM

## CN(C)c1cnc2c(c1C#N)C(C)(c1ccccc1)C1=C(CC(C)(C)CC1=O)N2 (single isomer, unassigned) [624A]
[1]; [3]
  IC50: 5 to 20 µM
[2]; [4]
  IC50: 5 to 20 µM

## CC(C)c1cnc2c(c1)C(C)(c1ccccc1)C1=C(CC(C)(C)CC1=O)N2 (single isomer, unassigned) [Compound 119A]
[1]; [9]
  IC50: 0.1 to 1 µM
[1]; [7]
  IC50: 5 to 20 µM
[2]; [10]
  IC50: 0.1 to 1 µM
[2]; [8]
  IC50: 1 to 5 µM

## CC1(C)CC(=O)C2=C(C1)Nc1ncc(F)c(C#N)c1C2(C)c1cccc(C(F)F)c1 (single isomer, unassigned) [634A]
[1]; [3]
  IC50: 5 to 20 µM
[2]; [4]
  IC50: 5 to 20 µM

## Cc1cnc2c(c1C#N)C(C)(c1ccccc1)C1=C(CC(C)(C)CC1=O)N2 (single isomer, unassigned) [603B]
[1]; [3]
  IC50: 0.1 to 1 µM
[2]; [4]
  IC50: 0.1 to 1 µM

## CC1(C)CC(=O)C2=C(C1)Nc1ncc(I)c(Br)c1C2(C)c1ccccc1 (single isomer, unassigned) [657A]
[1]; [3]
  IC50: 5 to 20 µM
[2]; [4]
  IC50: 5 to 20 µM
